Laboratory results reported in ChEMBL document CHEMBL5620374, “Synthesis and bioevaluation of novel stilbene-based derivatives as tubulin/HDAC dual-target inhibitors with potent antitumor activities in vitro and in vivo” (Eur J Med Chem, 2023).

Tests used:
H22 = experiment: Antitumor activity against mouse H22 cells allografted in ICR mouse assessed as tumor growth inhibition at 20 mg/kg, iv qd for 17 days consecutively relative to control; type: functional; settings: time 17 day, read-out: TGI
Histone deacetylase 7 = target: T1, Histone deacetylase 7 (Homo sapiens, UniProt Q8WUI4); experiment: Inhibition of HDAC7 derived from human HeLa cell extract using Ac-Leu-Gly-Lys (Ac)-AMC as substrate by fluorescence based assay; type: cell-free
T1 sequence (Q8WUI4 whole entry): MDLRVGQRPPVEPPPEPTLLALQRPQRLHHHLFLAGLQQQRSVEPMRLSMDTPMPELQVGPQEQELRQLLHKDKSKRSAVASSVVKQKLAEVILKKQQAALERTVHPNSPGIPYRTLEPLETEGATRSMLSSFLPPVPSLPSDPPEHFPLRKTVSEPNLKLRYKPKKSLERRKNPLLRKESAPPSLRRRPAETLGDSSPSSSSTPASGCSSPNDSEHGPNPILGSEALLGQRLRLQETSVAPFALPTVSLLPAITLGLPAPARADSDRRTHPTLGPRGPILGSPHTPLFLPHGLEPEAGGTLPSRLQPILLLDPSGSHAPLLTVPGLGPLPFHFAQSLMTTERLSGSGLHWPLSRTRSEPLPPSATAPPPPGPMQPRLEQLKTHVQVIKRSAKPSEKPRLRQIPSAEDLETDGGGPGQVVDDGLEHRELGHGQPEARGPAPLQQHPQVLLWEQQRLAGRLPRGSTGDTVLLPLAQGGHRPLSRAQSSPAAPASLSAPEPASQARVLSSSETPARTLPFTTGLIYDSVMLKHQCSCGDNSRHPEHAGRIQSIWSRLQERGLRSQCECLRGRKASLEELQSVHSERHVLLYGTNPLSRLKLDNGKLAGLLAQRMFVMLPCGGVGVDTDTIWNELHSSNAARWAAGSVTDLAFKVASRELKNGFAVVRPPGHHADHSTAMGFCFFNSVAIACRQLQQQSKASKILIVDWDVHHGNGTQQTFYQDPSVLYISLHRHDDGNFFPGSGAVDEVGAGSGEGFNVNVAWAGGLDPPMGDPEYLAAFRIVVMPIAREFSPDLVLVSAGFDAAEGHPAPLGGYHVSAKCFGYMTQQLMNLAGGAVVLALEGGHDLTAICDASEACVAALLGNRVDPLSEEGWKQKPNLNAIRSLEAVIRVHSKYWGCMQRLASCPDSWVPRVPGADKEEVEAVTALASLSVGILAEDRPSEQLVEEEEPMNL

MCF7 = experiment: cells; settings: Homo sapiens, MCF7, 72 h
Description: Antiproliferative activity against human MCF7 cells incubated for 72 hrs by MTT assay

MDA-MB-231 = experiment: cells; settings: Homo sapiens, MDA-MB-231, 72 h
Description: Antiproliferative activity against human MDA-MB-231 cells incubated for 72 hrs by MTT assay

Histone deacetylase 1 = Histone deacetylase 1 (Homo sapiens, UniProt Q13547); experiment: Inhibition of HDAC1 derived from human HeLa cell extract using Ac-Leu-Gly-Lys (Ac)-AMC as substrate by fluorescence based assay; type: cell-free
A2780 = experiment: cells; settings: Homo sapiens, A2780, 72 h
Description: Antiproliferative activity against human A2780 cells incubated for 72 hrs by MTT assay

B16-F10 = experiment: Antiproliferative activity against mouse B16-F10 cells incubated for 72 hrs by MTT assay; type: functional, cell-based; settings: B16-F10, 72 h
[1] = Antiproliferative activity against human HFL1 cells incubated for 72 hrs by MTT assay; type: toxicity, cell-based
K562 = experiment: Antiproliferative activity against human K562 cells incubated for 72 hrs by MTT assay; type: functional, cell-based; settings: K562, 72 h
Histone deacetylase 3 = Histone deacetylase 3 (Homo sapiens, UniProt O15379); experiment: Inhibition of HDAC3 derived from human HeLa cell extract using Ac-Leu-Gly-Lys (Ac)-AMC as substrate by fluorescence based assay; type: cell-free
A549 = experiment: cells; settings: Homo sapiens, A549, 72 h
Description: Antiproliferative activity against human A549 cells incubated for 72 hrs by MTT assay

Histone deacetylase 2 = Histone deacetylase 2 (Homo sapiens, UniProt Q92769); experiment: Inhibition of HDAC2 derived from human HeLa cell extract using Ac-Leu-Gly-Lys (Ac)-AMC as substrate by fluorescence based assay
[2] = target: T2, Protein deacetylase HDAC6 (Homo sapiens, UniProt Q9UBN7); experiment: Inhibition of HDAC6 derived from human HeLa cell extract using Ac-Leu-Gly-Lys (Ac)-AMC as substrate by fluorescence based assay; type: cell-free
T2 sequence (Q9UBN7 whole entry): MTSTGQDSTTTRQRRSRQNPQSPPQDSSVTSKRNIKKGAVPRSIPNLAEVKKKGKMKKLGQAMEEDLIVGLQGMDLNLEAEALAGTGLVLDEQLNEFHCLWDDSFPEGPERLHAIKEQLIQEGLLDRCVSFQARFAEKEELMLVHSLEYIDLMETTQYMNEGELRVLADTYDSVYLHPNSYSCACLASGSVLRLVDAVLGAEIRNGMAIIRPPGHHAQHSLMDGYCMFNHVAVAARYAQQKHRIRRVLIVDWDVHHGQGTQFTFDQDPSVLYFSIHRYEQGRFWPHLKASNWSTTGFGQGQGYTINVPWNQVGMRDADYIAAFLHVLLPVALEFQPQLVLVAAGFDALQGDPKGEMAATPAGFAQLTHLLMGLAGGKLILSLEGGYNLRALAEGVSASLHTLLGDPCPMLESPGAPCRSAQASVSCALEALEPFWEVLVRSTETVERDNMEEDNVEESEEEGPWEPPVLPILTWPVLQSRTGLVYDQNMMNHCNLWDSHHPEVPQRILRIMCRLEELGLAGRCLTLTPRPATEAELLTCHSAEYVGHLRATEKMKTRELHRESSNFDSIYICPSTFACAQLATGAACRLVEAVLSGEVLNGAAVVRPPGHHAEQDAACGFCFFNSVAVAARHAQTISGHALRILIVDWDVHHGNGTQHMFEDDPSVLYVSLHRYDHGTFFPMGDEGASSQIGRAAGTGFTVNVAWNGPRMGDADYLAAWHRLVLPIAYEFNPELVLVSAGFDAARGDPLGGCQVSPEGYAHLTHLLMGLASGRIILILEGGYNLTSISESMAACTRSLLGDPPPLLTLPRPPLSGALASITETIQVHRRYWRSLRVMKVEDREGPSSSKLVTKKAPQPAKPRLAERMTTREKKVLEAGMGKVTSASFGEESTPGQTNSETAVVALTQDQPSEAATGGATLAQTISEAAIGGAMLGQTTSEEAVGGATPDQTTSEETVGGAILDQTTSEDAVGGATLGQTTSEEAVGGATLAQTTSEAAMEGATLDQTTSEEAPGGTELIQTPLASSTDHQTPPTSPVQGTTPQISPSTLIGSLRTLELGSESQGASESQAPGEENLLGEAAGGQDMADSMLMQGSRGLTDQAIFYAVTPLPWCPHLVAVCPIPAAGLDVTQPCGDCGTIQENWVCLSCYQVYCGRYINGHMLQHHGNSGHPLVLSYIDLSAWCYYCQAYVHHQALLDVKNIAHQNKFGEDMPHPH

Chain of Histone deacetylase 3 (O15379 whole entry): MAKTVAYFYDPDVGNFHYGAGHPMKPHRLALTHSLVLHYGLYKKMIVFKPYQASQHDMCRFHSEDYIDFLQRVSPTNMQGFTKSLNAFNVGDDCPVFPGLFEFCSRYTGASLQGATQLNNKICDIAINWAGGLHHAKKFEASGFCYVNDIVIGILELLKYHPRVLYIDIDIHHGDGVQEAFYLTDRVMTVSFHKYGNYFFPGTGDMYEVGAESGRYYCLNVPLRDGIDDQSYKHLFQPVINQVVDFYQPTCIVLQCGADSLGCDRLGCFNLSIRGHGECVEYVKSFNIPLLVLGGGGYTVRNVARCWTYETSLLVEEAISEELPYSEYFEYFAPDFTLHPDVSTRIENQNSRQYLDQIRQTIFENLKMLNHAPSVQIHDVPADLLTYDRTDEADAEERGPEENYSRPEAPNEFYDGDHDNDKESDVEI
Chain of Histone deacetylase 2 (Q92769 whole entry): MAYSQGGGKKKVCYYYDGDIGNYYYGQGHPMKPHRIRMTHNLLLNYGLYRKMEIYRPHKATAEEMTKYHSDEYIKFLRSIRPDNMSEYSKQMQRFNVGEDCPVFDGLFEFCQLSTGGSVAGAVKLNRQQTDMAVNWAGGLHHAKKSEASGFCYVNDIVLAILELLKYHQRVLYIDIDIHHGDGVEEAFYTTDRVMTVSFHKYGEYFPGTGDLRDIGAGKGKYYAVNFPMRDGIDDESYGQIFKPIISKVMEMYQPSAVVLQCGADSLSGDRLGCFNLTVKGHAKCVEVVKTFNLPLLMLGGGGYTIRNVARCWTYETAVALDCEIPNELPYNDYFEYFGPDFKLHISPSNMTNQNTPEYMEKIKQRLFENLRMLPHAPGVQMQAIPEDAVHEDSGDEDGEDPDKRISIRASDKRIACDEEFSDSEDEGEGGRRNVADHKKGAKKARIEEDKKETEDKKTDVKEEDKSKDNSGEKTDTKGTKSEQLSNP
Chain of Histone deacetylase 1 (Q13547 whole entry): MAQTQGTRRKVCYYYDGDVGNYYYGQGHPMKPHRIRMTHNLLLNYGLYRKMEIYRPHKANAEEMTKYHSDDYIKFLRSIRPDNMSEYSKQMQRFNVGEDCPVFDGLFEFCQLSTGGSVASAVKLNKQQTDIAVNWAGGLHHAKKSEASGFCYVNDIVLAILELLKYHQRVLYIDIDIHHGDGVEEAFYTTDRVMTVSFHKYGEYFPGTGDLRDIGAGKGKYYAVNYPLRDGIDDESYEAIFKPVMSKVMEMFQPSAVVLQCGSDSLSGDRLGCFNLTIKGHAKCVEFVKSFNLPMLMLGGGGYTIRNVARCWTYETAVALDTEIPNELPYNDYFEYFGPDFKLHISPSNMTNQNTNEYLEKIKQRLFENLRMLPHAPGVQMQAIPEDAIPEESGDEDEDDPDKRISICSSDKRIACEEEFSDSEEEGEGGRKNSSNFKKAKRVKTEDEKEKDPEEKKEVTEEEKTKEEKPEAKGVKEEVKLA

Structure (SMILES) | inhibition in vivo at 20 mg/kg (H22) [%] | IC50 (Histone deacetylase 7) [nM] | IC50 (MCF7) [nM] | IC50 (MDA-MB-231) [nM] | IC50 (Histone deacetylase 1) [nM] | IC50 (A2780) [nM] | IC50 (B16-F10) [nM] | IC50 at 72 h [1] [nM] | IC50 (K562) [nM] | IC50 (Histone deacetylase 3) [nM] | IC50 (A549) [nM] | IC50 (Histone deacetylase 2) [nM] | IC50 [2] [nM]
C=C(c1ccc(OC)c(O)c1)c1cc(C)nc2ccccc12 | 64.1 | – | – | – | – | – | – | – | – | – | – | – | –
C=C(c1ccc(OC)c(OC(C)C(=O)NO)c1)c1cc(C)nc2ccccc12 (stereo not drawn) | – | > 10000 | 22 | 28 | 1470 | 14 | 30 | 95 | 7 | 8910 | 15 | 2320 | 4680
